Measurements reported in US20230085307A1, “PYRIDAZINONE COMPOUND AND HERBICIDE” (NISSAN CHEMICAL CORPORATION, priority 2019, published 2023).

Key:
chickweed [1] = test: Test Example 5: herbicidal effect by foliage application, plastic box (Table 20, symbol P); format: in vivo, common chickweed (Stellaria media); conditions: foliage application, 320 g/ha, three weeks after application
In short: (§1)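 Sow seeds spot-wise in sterilized diluvial soil; cover with ~1.5 cm soil. Grow 14 days in greenhouse, 25° C. to 30° C. Spray foliage with emulsion diluted to predetermined amount. Rate effect after 3 weeks.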

green foxtail [2] = test: Test Example 5: herbicidal effect by foliage application, plastic box (Table 20, symbol G); format: in vivo, green foxtail (Setaria viridis); conditions: foliage application, 320 g/ha, three weeks after application
In short: as §1

windgrass [3] = test: Test Example 5: herbicidal effect by foliage application, plastic box (Table 20, symbol L); format: in vivo, windgrass (Apera spica-venti); conditions: foliage application, 320 g/ha, three weeks after application
In short: as §1

velvetleaf [4] = test: Test Example 4: herbicidal effect by soil treatment (Table 19, symbol M); format: in vivo, velvetleaf (Abutilon theophrasti); conditions: amount of applied herbicide 320 g/ha
In short: (§2)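 Applied as a water-diluted emulsion, the compound was sprayed onto soil covering newly sown seeds. Evaluation came three weeks after application, in a greenhouse held at 25° C. to 30° C.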

wild oat [5] = test: Test Example 5: herbicidal effect by foliage application, plastic box (Table 20, symbol I); format: in vivo, wild oat (Avena fatua); conditions: foliage application, 320 g/ha, three weeks after application
In short: as §1

southern crabgrass [6] = test: Test Example 5: herbicidal effect by foliage application, plastic box (Table 20, symbol F); format: in vivo, southern crabgrass (Digitaria ciliaris); conditions: foliage application, 320 g/ha, three weeks after application
In short: as §1

southern crabgrass [7] = test: Test Example 4: herbicidal effect by soil treatment (Table 19, symbol F); format: in vivo, southern crabgrass (Digitaria ciliaris); conditions: amount of applied herbicide 320 g/ha
In short: as §2

lambsquarters [8] = test: Test Example 5: herbicidal effect by foliage application, plastic box (Table 20, symbol O); format: in vivo, lambsquarters (Chenopodium album); conditions: foliage application, 320 g/ha, three weeks after application
In short: as §1

late watergrass = test: Test Example 1: herbicidal activity, application before weed generation under submerged conditions (Table 16, symbol A); format: in vivo, late watergrass (Echinochloa oryzicola); conditions: 320 g/ha applied herbicide
In short: (§3)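 Emulsion formulation, water-diluted to set dose, was put onto the flooded surface (4 cm depth, alluvial soil) the same day weeds were sown and 2.5-leaf rice transplanted. After 3 weeks at 25-30 °C under glass, each species was rated 0 (≤5% kill) to 5 (≥90% kill).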

barnyard grass [9] = test: Test Example 5: herbicidal effect by foliage application, plastic box (Table 20, symbol H); format: in vivo, barnyard grass (Echinochloa crus-galli); conditions: foliage application, 320 g/ha, three weeks after application
In short: as §1

persian speedwell [10] = test: Test Example 4: herbicidal effect by soil treatment (Table 19, symbol R); format: in vivo, Persian speedwell (Veronica persica); conditions: amount of applied herbicide 320 g/ha
In short: as §2

persian speedwell [11] = test: Test Example 5: herbicidal effect by foliage application, plastic box (Table 20, symbol R); format: in vivo, Persian speedwell (Veronica persica); conditions: foliage application, 320 g/ha, three weeks after application
In short: as §1

Italian ryegrass [12] = test: Test Example 4: herbicidal effect by soil treatment (Table 19, symbol K); format: in vivo, Italian ryegrass (Lolium multiflorum); conditions: amount of applied herbicide 320 g/ha
In short: as §2

false cleavers = test: Test Example 4: herbicidal effect by soil treatment (Table 19, symbol Q); format: in vivo, false cleavers (Galium spurium); conditions: amount of applied herbicide 320 g/ha
In short: as §2

barnyard grass [13] = test: Test Example 4: herbicidal effect by soil treatment (Table 19, symbol H); format: in vivo, barnyard grass (Echinochloa crus-galli); conditions: amount of applied herbicide 320 g/ha
In short: as §2

oval-leafed pondweed = test: Test Example 1: herbicidal activity, application before weed generation under submerged conditions (Table 16, symbol C); format: in vivo, oval-leafed pondweed (Monochoria vaginalis); conditions: 320 g/ha applied herbicide
In short: as §3

Chinese sprangletop = test: Test Example 3: herbicidal effect by foliage application, Wagner pot (Table 18, symbol D); format: in vivo, chinese sprangletop (Leptochloa chinensis); conditions: 320 g/ha
In short: (§4)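 Plants were sown in alluvial soil held under 0.1–0.5 cm standing water and grown 14 days in a greenhouse at 25–30 °C. An emulsifiable formulation, water-diluted to the set dose, was then sprayed onto the foliage, and effects were scored three weeks later using previously defined criteria.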

barnyard grass [14] = test: Test Example 3: herbicidal effect by foliage application, Wagner pot (Table 18, symbol H); format: in vivo, barnyard grass (Echinochloa crus-galli); conditions: 320 g/ha
In short: as §4

rice flat sedge = test: Test Example 3: herbicidal effect by foliage application, Wagner pot (Table 18, symbol E); format: in vivo, rice flat sedge (Cyperus iria); conditions: 320 g/ha
In short: as §4

chickweed [15] = test: Test Example 4: herbicidal effect by soil treatment (Table 19, symbol P); format: in vivo, common chickweed (Stellaria media); conditions: amount of applied herbicide 320 g/ha
In short: as §2

Italian ryegrass [16] = test: Test Example 5: herbicidal effect by foliage application, plastic box (Table 20, symbol K); format: in vivo, Italian ryegrass (Lolium multiflorum); conditions: foliage application, 320 g/ha, three weeks after application
In short: as §1

wild oat [17] = test: Test Example 4: herbicidal effect by soil treatment (Table 19, symbol I); format: in vivo, wild oat (Avena fatua); conditions: amount of applied herbicide 320 g/ha
In short: as §2

green foxtail [18] = test: Test Example 4: herbicidal effect by soil treatment (Table 19, symbol G); format: in vivo, green foxtail (Setaria viridis); conditions: amount of applied herbicide 320 g/ha
In short: as §2

blackgrass [19] = test: Test Example 4: herbicidal effect by soil treatment (Table 19, symbol J); format: in vivo, blackgrass (Alopecurus myosuroides); conditions: amount of applied herbicide 320 g/ha
In short: as §2

blackgrass [20] = test: Test Example 5: herbicidal effect by foliage application, plastic box (Table 20, symbol J); format: in vivo, blackgrass (Alopecurus myosuroides); conditions: foliage application, 320 g/ha, three weeks after application
In short: as §1

velvetleaf [21] = test: Test Example 5: herbicidal effect by foliage application, plastic box (Table 20, symbol M); format: in vivo, velvetleaf (Abutilon theophrasti); conditions: foliage application, 320 g/ha, three weeks after application
In short: as §1

redroot pigweed [22] = test: Test Example 5: herbicidal effect by foliage application, plastic box (Table 20, symbol N); format: in vivo, redroot pigweed (Amaranthus retroflexus); conditions: foliage application, 320 g/ha, three weeks after application
In short: as §1

redroot pigweed [23] = test: Test Example 4: herbicidal effect by soil treatment (Table 19, symbol N); format: in vivo, redroot pigweed (Amaranthus retroflexus); conditions: amount of applied herbicide 320 g/ha
In short: as §2

Japanese bulrush = test: Test Example 1: herbicidal activity, application before weed generation under submerged conditions (Table 16, symbol B); format: in vivo, Japanese bulrush (Schoenoplectus juncoides); conditions: 320 g/ha applied herbicide
In short: as §3

windgrass [24] = test: Test Example 4: herbicidal effect by soil treatment (Table 19, symbol L); format: in vivo, windgrass (Apera spica-venti); conditions: amount of applied herbicide 320 g/ha
In short: as §2

lambsquarters [25] = test: Test Example 4: herbicidal effect by soil treatment (Table 19, symbol O); format: in vivo, lambsquarters (Chenopodium album); conditions: amount of applied herbicide 320 g/ha
In short: as §2

CCCC(=O)Oc1c(C)nn(C)c(=O)c1-c1c(-c2ccc(F)c(C)c2)sc2ccccc12 [1-052]
herbicidal effect grade, P: chickweed (chickweed [1]): 5 (Herbicidal rate of 90% or more (almost completely withered))
herbicidal effect grade, G: green foxtail (green foxtail [2]): 5 (Herbicidal rate of 90% or more (almost completely withered))
herbicidal effect grade, L: windgrass (windgrass [3]): 0 (Herbicidal rate of 5% or less (almost no effect))
herbicidal effect rating, M: velvetleaf (velvetleaf [4]): 0 (Herbicidal rate of 5% or less (almost no effect))
herbicidal effect grade, I: wild oat (wild oat [5]): 0 (Herbicidal rate of 5% or less (almost no effect))
herbicidal effect grade, F: southern crabgrass (southern crabgrass [6]): 2 (Herbicidal rate of 20% or more and less than 40%)
herbicidal effect rating, F: southern crabgrass (southern crabgrass [7]): 1 (Herbicidal rate of 5% or more and less than 20%)
herbicidal effect grade, O: lambsquarters (lambsquarters [8]): 3 (Herbicidal rate of 40% or more and less than 70%)
Herbicidal effect on A: late watergrass (grade 0-5) (late watergrass): 3 (Herbicidal rate of 40% or more and less than 70%)
herbicidal effect grade, H: barnyard grass (barnyard grass [9]): 3 (Herbicidal rate of 40% or more and less than 70%)
herbicidal effect rating, R: persian speedwell (persian speedwell [10]): 3 (Herbicidal rate of 40% or more and less than 70%)
herbicidal effect grade, R: persian speedwell (persian speedwell [11]): 1 (Herbicidal rate of 5% or more and less than 20%)
herbicidal effect rating, K: Italian ryegrass (Italian ryegrass [12]): 1 (Herbicidal rate of 5% or more and less than 20%)
herbicidal effect rating, Q: false cleavers (false cleavers): 0 (Herbicidal rate of 5% or less (almost no effect))
herbicidal effect rating, H: barnyard grass (barnyard grass [13]): 3 (Herbicidal rate of 40% or more and less than 70%)
Herbicidal effect on C: oval-leafed pondweed (grade 0-5) (oval-leafed pondweed): 3 (Herbicidal rate of 40% or more and less than 70%)
herbicidal effect on D (Chinese sprangletop), rating 0-5 (Chinese sprangletop): 2 (Herbicidal rate of 20% or more and less than 40%)
herbicidal effect on H (barnyard grass), rating 0-5 (barnyard grass [14]): 3 (Herbicidal rate of 40% or more and less than 70%)
herbicidal effect on E (rice flat sedge), rating 0-5 (rice flat sedge): 5 (Herbicidal rate of 90% or more (almost completely withered))
herbicidal effect rating, P: chickweed (chickweed [15]): 4 (Herbicidal rate of 70% or more and less than 90%)
herbicidal effect grade, K: Italian ryegrass (Italian ryegrass [16]): 0 (Herbicidal rate of 5% or less (almost no effect))
herbicidal effect rating, I: wild oat (wild oat [17]): 0 (Herbicidal rate of 5% or less (almost no effect))
herbicidal effect rating, G: green foxtail (green foxtail [18]): 4 (Herbicidal rate of 70% or more and less than 90%)
herbicidal effect rating, J: blackgrass (blackgrass [19]): 0 (Herbicidal rate of 5% or less (almost no effect))
herbicidal effect grade, J: blackgrass (blackgrass [20]): 0 (Herbicidal rate of 5% or less (almost no effect))
herbicidal effect grade, M: velvetleaf (velvetleaf [21]): 5 (Herbicidal rate of 90% or more (almost completely withered))
herbicidal effect grade, N: redroot pigweed (redroot pigweed [22]): 3 (Herbicidal rate of 40% or more and less than 70%)
herbicidal effect rating, N: redroot pigweed (redroot pigweed [23]): 0 (Herbicidal rate of 5% or less (almost no effect))
Herbicidal effect on B: Japanese bulrush (grade 0-5) (Japanese bulrush): 1 (Herbicidal rate of 5% or more and less than 20%)
herbicidal effect rating, L: windgrass (windgrass [24]): 0 (Herbicidal rate of 5% or less (almost no effect))
herbicidal effect rating, O: lambsquarters (lambsquarters [25]): 2 (Herbicidal rate of 20% or more and less than 40%)
